Like-named read-outs stand apart in the source and are kept apart here.
How the values were obtained:
[1] = tested on: TNFα production in LPS-stimulated human monocytes; assay: Cot Monocyte TNFα Cell Based Assay; conditions: Homo sapiens, Monocyte, TNFα in LPS-stimulated human monocytes; read-out: EC50 TNF
Outline: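 TNFα release quantified by two-antibody TR-FRET, normalised to unstimulated (0%) and LPS-stimulated (100%) wells. Cells got a 1 h compound exposure at 37° C in 0.5% DMSO before 4 h challenge with 50 pg/ml LPS, at 5,000 cells/well.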

[2] = biological target: T1, human Cot catalytic domain (30-397 amino acids) (Homo sapiens, UniProt P41279); assay: High Throughput Cot Biochemical Assay (KinEASE TR-FRET); conditions: read-out: IC50 HTRF
T1 construct: Purified recombinant human Cot catalytic domain (30-397 amino acids) was purchased from Cama Biosciences; purchased Cama Biosciences (so in the source)
T1 sequence (P41279 30-397): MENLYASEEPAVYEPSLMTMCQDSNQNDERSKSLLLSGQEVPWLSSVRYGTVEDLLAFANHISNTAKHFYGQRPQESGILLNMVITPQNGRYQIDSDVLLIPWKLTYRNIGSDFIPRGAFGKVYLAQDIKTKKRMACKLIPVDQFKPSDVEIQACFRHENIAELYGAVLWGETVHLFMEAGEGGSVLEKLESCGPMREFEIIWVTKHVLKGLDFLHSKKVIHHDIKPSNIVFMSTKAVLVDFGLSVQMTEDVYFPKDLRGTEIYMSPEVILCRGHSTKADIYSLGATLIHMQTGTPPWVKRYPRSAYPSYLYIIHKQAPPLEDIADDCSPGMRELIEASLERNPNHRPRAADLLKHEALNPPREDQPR
Outline: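 TR-FRET (KinEASE) read-out: Eu-labelled phospho-specific antibody binds XL665-tagged STK3 peptide (1 μM) phosphorylated by 5 nM human Cot kinase domain (residues 30-397). Reaction at 400 μM ATP, pH 7.0 MOPS buffer with 10 mM MgOAc, 1 mM DTT and 0.1% DMSO.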

[3] = Cot KinEASE TR-FRET (HTRF) biochemical assay, 400 μM ATP
[4] = Cot biochemical HTRF (KinEASE TR-FRET) assay

EC50 [1]	IC50 [2, 3]	IC50 [2, 4]	SMILES
532 nM	15 nM	–	CC1(n2cc([C@@H](Nc3cc(Cl)c4ncc(C#N)c(Nc5cnc(F)c(F)c5)c4c3)c3ccc(F)cc3)nn2)COC1 [Example 403, (S)-8-chloro-4-((5,6-difluoropyridin-3-yl)amino)-6-(((4-fluorophenyl) (1-(3-methyloxetan-3-yl)-1H-1,2,3-triazol-4-yl)methyl)amino)quinoline-3-carbonitrile]
2300 nM	–	69 nM	N#Cc1cnc2c(Cl)cc(N[C@@H](c3ccc(F)cc3)c3cn(CC4(F)COC4)nn3)cc2c1Nc1cnc(F)c(F)c1 [Example 405, (S)-8-chloro-4-((5,6-difluoropyridin-3-yl)amino)-6-(((1-((3-fluorooxetan-3-yl)methyl)-1H-1,2,3-triazol-4-yl)(4-fluorophenyl)methyl)amino) quinoline-3-carbonitrile]
4430 nM	–	212 nM	C[C@@H](n1cc([C@@H](Nc2cc(Cl)c3ncc(C#N)c(Nc4cnc(F)c(F)c4)c3c2)c2ccc(F)cc2)nn1)C(F)(F)F [Example 406, 8-chloro-4-((5,6-difluoropyridin-3-yl)amino)-6-(((S)-(4-fluorophenyl)(1-((R)-1,1,1-trifluoropropan-2-yl)-1H-1,2,3-triazol-4-yl)methyl)amino)quinoline-3-carbonitrile]
1530 nM	–	47 nM	CC(C(F)F)n1cc([C@@H](Nc2cc(Cl)c3ncc(C#N)c(Nc4cnc(F)c(F)c4)c3c2)c2ccc(F)cc2)nn1 (stereo partly drawn) [Example 407, 8-chloro-6-(((1S)-(1-(1,1-difluoropropan-2-yl)-1H-1,2,3-triazol-4-yl)(4-fluorophenyl)methyl)amino)-4-((5,6-difluoropyridin-3-yl)amino)quinoline-3-carbonitrile]
779 nM	–	41 nM	N#Cc1cnc2c(Cl)cc(N[C@@H](c3ccc(F)cc3)c3cn(-c4ccccc4)nn3)cc2c1Nc1cnc(F)c(F)c1 [Example 408, (S)-8-chloro-4-((5,6-difluoropyridin-3-yl)amino)-6-(((4-fluorophenyl) (1-phenyl-1H-1,2,3-triazol-4-yl)methyl)amino)quinoline-3-carbonitrile]
776 nM	–	23 nM	N#Cc1cnc2c(Cl)cc(N[C@@H](c3ccc(F)cc3)c3cn(CC(F)F)nn3)cc2c1Nc1cnc(F)c(F)c1 [Example 409, (S)-8-chloro-6-(((1-(2,2-difluoroethyl)-1H-1,2,3-triazol-4-yl)(4-fluorophenyl)methyl)amino)-4-((5,6-difluoropyridin-3-yl)amino)quinoline-3-carbonitrile]
723 nM	–	30 nM	N#CCn1cc([C@@H](Nc2cc(Cl)c3ncc(C#N)c(Nc4cnc(F)c(F)c4)c3c2)c2ccc(F)cc2)nn1 [Example 410, (S)-8-chloro-6-(((1-(cyanomethyl)-1H-1,2,3-triazol-4-yl)(4-fluorophenyl)methyl)amino)-4-((5,6-difluoropyridin-3-yl)amino)quinoline-3-carbonitrile]
3410 nM	–	111 nM	CC(C)(C)Cn1cc([C@@H](Nc2cc(Cl)c3ncc(C#N)c(Nc4cnc(F)c(F)c4)c3c2)c2ccc(F)cc2)nn1 [Example 411, (S)-8-chloro-4-((5,6-difluoropyridin-3-yl)amino)-6-(((4-fluorophenyl)(1-neopentyl-1H-1,2,3-triazol-4-yl)methyl)amino)quinoline-3-carbonitrile]
2220 nM	–	50 nM	CC1(Cn2cc([C@@H](Nc3cc(Cl)c4ncc(C#N)c(Nc5cnc(F)c(F)c5)c4c3)c3ccc(F)cc3)nn2)CC1 [Example 412, (S)-8-chloro-4-((5,6-difluoropyridin-3-yl)amino)-6-(((4-fluorophenyl)(1-((1-methylcyclopropyl)methyl)-1H-1,2,3-triazol-4-yl)methyl)amino)quinoline-3-carbonitrile]
2750 nM	–	93 nM	CC1(Cn2cc([C@@H](Nc3cc(Cl)c4ncc(C#N)c(Nc5cnc(F)c(F)c5)c4c3)c3ccc(F)cc3)nn2)CCC1 [Example 413]
140 nM	–	4 nM	N#Cc1cnc2c(Cl)cc(N[C@@H](c3ccc(F)cc3)c3cn(C4CC4)nn3)cc2c1Nc1cnc(F)c(Cl)c1 [Example 414, (S)-8-chloro-4-((5-chloro-6-fluoropyridin-3-yl)amino)-6-(((1-cyclopropyl-1H-1,2,3-triazol-4-yl)(4-fluorophenyl)methyl)amino) quinoline-3-carbonitrile]
1930 nM	–	74 nM	N#Cc1cnc2c(Cl)cc(N[C@@H](c3ccc(F)cc3)c3cn(C4(C(F)(F)F)CC4)nn3)cc2c1Nc1cnc(F)c(F)c1 [Example 417, (S)-8-chloro-4-((5,6-difluoropyridin-3-yl)amino)-6-(((4-fluorophenyl)(1-(1-(trifluoromethyl)cyclopropyl)-1H-1,2,3-triazol-4-yl)methyl)amino)quinoline-3-carbonitrile]

Second part, the compound before the results:

SMILES	EC50 [1]	IC50 [2, 3]	IC50 [2, 4]
CC(C)(C)CNc1c(C#N)cnc2c(Cl)cc(N[C@@H](c3ccc(F)cc3)c3c[nH]nn3)cc12 [Example 400, (S)-8-chloro-6-(((4-fluorophenyl)(1H-1,2,3-triazol-4-yl)methyl)amino)-4-(neopentylamino) quinoline-3-carbonitrile]	1230 nM	47 nM	–
N#Cc1cnc2c(Cl)cc(N[C@@H](c3ccc(F)cc3)c3c[nH]nn3)cc2c1NCc1cscn1 [Example 401, (S)-8-chloro-6-(((4-fluorophenyl)(1H-1,2,3-triazol-4-yl)methyl)amino)-4-((thiazol-4-ylmethyl)amino)quinoline-3-carbonitrile]	4790 nM	758 nM	–
N#Cc1cnc2c(Cl)cc(N[C@@H](c3ccc(F)cc3)c3c[nH]nn3)cc2c1NCc1nccs1 [Example 402, (S)-8-chloro-6-(((4-fluorophenyl)(1H-1,2,3-triazol-4-yl)methyl)amino)-4-((thiazol-2-ylmethyl)amino)quinoline-3-carbonitrile]	3650 nM	353 nM	–
N#Cc1cnc2c(Cl)cc(N[C@H](c3c[nH]nn3)c3ccccc3C(F)F)cc2c1Nc1cnc(F)c(F)c1 [Example 404, (S)-8-chloro-6-(((2-(difluoromethyl)phenyl) (1H-1,2,3-triazol-4-yl)methyl)amino)-4-((5,6-difluoropyridin-3-yl)amino)quinoline-3-carbonitrile]	570 nM	–	34 nM
[2H][C@](Nc1cc(Cl)c2ncc(C#N)c(N[C@H](CC)c3ccccc3)c2c1)(c1ccc(F)cc1)c1c[nH]nn1 [Example 415, 8-chloro-6-(((S)-(4-fluorophenyl)(1H-1,2,3-triazol-4-yl)methyl-d)amino)-4-(((R)-1-phenylpropyl)amino)quinoline-3-carbonitrile]	409 nM	–	9 nM
CC[C@@H](Nc1c(C#N)cnc2c(Cl)cc(N[C@@H](c3ccc(F)cc3)c3cn(C)nn3)cc12)c1ccccc1 [Example 416, 8-chloro-6-(((S)-(4-fluorophenyl)(1-methyl-1H-1,2,3-triazol-4-yl)methyl)amino)-4-(((R)-1-phenylpropyl)amino) quinoline-3-carbonitrile]	209 nM	–	6 nM
N#Cc1cnc2c(Cl)cc(N[C@@H](c3ccc(F)cc3)c3c[nH]nn3)cc2c1NCc1cccs1 [Example 418, (S)-8-chloro-6-(((4-fluorophenyl)(1H-1,2,3-triazol-4-yl)methyl)amino)-4-((thiophen-2-ylmethyl)amino)quinoline-3-carbonitrile]	4170 nM	–	361 nM
N#Cc1cnc2c(Cl)cc(N[C@@H](c3ccc(F)cc3)c3c[nH]nn3)cc2c1NCc1ccsc1 [Example 419, (S)-8-chloro-6-(((4-fluorophenyl)(1H-1,2,3-triazol-4-yl)methyl)amino)-4-((thiophen-3-ylmethyl)amino)quinoline-3-carbonitrile]	4300 nM	–	392 nM
N#Cc1cnc2c(Cl)cc(N[C@@H](c3ccc(F)cc3)c3c[nH]nn3)cc2c1NCC1CCOC1 (stereo partly drawn) [Example 420, 8-chloro-6-(((S)-(4-fluorophenyl)(1H-1,2,3-triazol-4-yl)methyl)amino)-4-(((tetrahydrofuran-3-yl)methyl)amino)quinoline-3-carbonitrile]	5160 nM	–	191 nM
N#Cc1cnc2c(Cl)cc(N[C@@H](c3ccc(F)cc3)c3c[nH]nn3)cc2c1NCC1COC1 [Example 421, (S)-8-chloro-6-(((4-fluorophenyl)(1H-1,2,3-triazol-4-yl)methyl)amino)-4-((oxetan-3-ylmethyl)amino)quinoline-3-carbonitrile]	> 10000 nM	–	1490 nM
N#Cc1cnc2c(Cl)cc(N[C@H](c3c[nH]nn3)c3ccc(F)cc3Cl)cc2c1Nc1cnc(F)c(F)c1 [Example 422, (S)-8-chloro-6-(((2-chloro-4-fluorophenyl)(1H-1,2,3-triazol-4-yl)methyl)amino)-4-((5,6-difluoropyridin-3-yl)amino)quinoline-3-carbonitrile]	1350 nM	–	48 nM
N#Cc1ccc([C@H](Nc2cc(Cl)c3ncc(C#N)c(Nc4cnc(F)c(F)c4)c3c2)c2c[nH]nn2)cc1 [Example 423, (S)-8-chloro-6-(((4-cyanophenyl)(1H-1,2,3-triazol-4-yl)methyl)amino)-4-((5,6-difluoropyridin-3-yl)amino)quinoline-3-carbonitrile]	1260 nM	–	17 nM

Reference: US10316017B2, “COT modulators and methods of use thereof” (Gilead Sciences, Inc., priority 2015, dated 2019)
